Experiments:
[1] = Blocker Index (BI), expert graders, isovaleric acid malodorous swatch; parameters: key: BI odor strength 0 (lowest, clean swatch) to 3 (highest)
From the text: (§1) Blocker materials suitable for use in consumer products of the present invention are chosen for their ability to decrease malodor, while not interfering with perception of a fragrance. Material selection is done by assigning two indices to a test sample material from two reference scales in order to rank odor strengths. The two reference scales are the Fragrance Fidelity Index (FFI) scale and the Blocker Index (BI) scale. The FFI ranks the ability of the test sample material to impart a perceivable odor which could cause interference when combined with another fragrance and the BI ranks the ability of the test sample material to reduce malodor perception. The two methods for assigning the indices to a test sample on the FFI and the BI reference scales are given below.
(§2) The first step in the method for assigning a BI to a test sample material on the BI reference scale is to create the BI reference swatches. […] Fabric swatches for this test are white knit polycotton (4 inch×4 inch) swatches from EMC ordered as PC 50/50. The supplier is instructed to strip the swatches first, stripping involves washing twice with a fragrance-free detergent and rinsing three times.
The BI scale contains one clean swatch with no malodor applied. […] These solutions are pipetted to the middle of the swatches. […] After drying for 30 minutes in a vented hood, the swatches are wrapped in aluminum foil to prevent odor contamination to the treated swatch. A clean untreated swatch is also included as the lowest anchor point of reference for malodor strength on the BI scale. The BI reference scale swatches should be used within 0.5 to 12 hours and discarded after 12 hours. The swatches are used as scale anchor points when graders evaluate a test sample(s) and are assigned a Blocker Index (BI) as show in Table 12.
The perfumer/expert grader is asked to rank order swatches according to a scale between 0 and 3.
The reference swatches represent the 0, 1, 2, and 3 BIs on the BI reference scale, Table 12. The expert grader should familiarizes him/herself with the strength of the odor on the BI reference swatches by sniffing each one starting at 0 (the lowest odor strength) and ending at 3 (the highest odor strength). This should be done prior to evaluating the swatch treated with the test material.
To evaluate the BI, the test material is applied to a malodorous swatch to determine how well the test material blocks the malodor. […] After drying the malodorous swatch a known concentration of test material solution, between 1 ppm and 100 ppm is pipetted onto the malodorous swatch. […] It is sometimes necessary to evaluate several levels of the test material between about 1 and about 100 ppm to determine the BI.
At least two perfumers/expert graders are used to assign the BI to the test sample. […] The test sample swatch is assigned a BI at or between numbers on the BI in table.

[2] = Fragrance Fidelity Index (FFI), expert graders, treated fabric swatch against ethyl vanillin reference scale
From the text: as §1
as §2, with “assigning an FFI” for “assigning a BI”, “to the” for “to a”, “test samples” for “test sample material”, “the FFI” for “the BI”
Pipette 13 μL of each of the three solutions into the middle of a clean swatch resulting in about a 1 cm diameter of the solution in the middle of the swatch. This will create a sensory scale of three swatches with three different odor levels based on the concentration of the solution pipetted onto the swatch. After drying for 30 minutes in a vented hood, the swatches are wrapped in aluminum foil to prevent odor contamination to the treated swatch. A clean untreated swatch is also included as the lowest anchor point of reference for odor strength on the FFI scale. The FFI reference scale swatches should be used within 0.5 to 12 hours and discarded after 12 hours. The swatches are used as scale anchor points when graders evaluate a test sample(s) and are assigned a Fragrance Fidelity Index (FFI) as show in Table 7.
The perfumer/expert panel is asked to rank order swatches according to a scale between 0 and 3.
The reference swatches represent the 0, 1, 2, and 3 FFIs on the FFI reference scale, Table 9. The expert grader should familiarize them self with the strength of the odor on the FFI reference swatches by sniffing each one starting at 0 (the lowest odor strength) and ending at 3 (the highest odor strength). This should be done prior to evaluating the test sample material treated swatch.
A clean swatch is treated with 13 μL of a known concentration of a test sample material resulting in an about 1 cm of the solution on the clean swatch. Just like the reference swatches, the test sample material swatch is dried in a vented hood for 30 minutes and then wrapped in aluminum foil to prevent contamination. […]

[3] = test material Conc 10 ppm on isovaleric acid malodorous swatch
[4] = test material Conc 50 ppm on isovaleric acid malodorous swatch

## O=C1CCC2CCCCC2O1 (stereo not drawn) [3,4,4a,5,6,7,8,8a-octahydrochromen-2-one]
[1]; [3]
  BI: 2.0
[1]; [4]
  BI: 2.0

## CC1CCC2(C(C)C)CC(C)OC2C1 (stereo not drawn) [4,8-dimethyl-1-(methylethyl)-7-oxybiciclo [4.3.0]nonane]
[2]; Conc 50 ppm
  FFI: 0.3
[1]; Conc 10 ppm
  BI: 2.0
[1]; Conc 50 ppm
  BI: 2.2

## CC(C)(C)C1CCCCC1 [4-tert-butyl cyclohexane]
[1]; [3]
  BI: 2.0
[1]; [4]
  BI: 2.0

## CCC(=O)OC1CC2C3C=CCC3C1C2(C)C (stereo not drawn) [8,8-dimethyl-3a,4,5,6,7,7a-hexahydro-1H-4,7-methanoinden-6-yl propionate]
[2]; Conc 10 ppm
  FFI: 0
[2]; Conc 50 ppm
  FFI: 0
[1]; Conc 10 ppm
  BI: 1.5
[1]; Conc 50 ppm
  BI: 2.2

## CCCCCCCCCCCCCCCC(=O)OC [Material 109]
[1]; [3]
  BI: 2.0

## CCCCCCCCCCCCO [Material 174]
[1]; [4]
  BI: 2.3

## CC(=O)OCCCCCCC(C)C [Material 204]
[1]; [3]
  BI: 2.0
[1]; [4]
  BI: 2.7

## CC1(C)CCc2ccc(CCC=O)cc21 [Material 261, 3-(3,3-dimethyl-2,3-dihydro-1H-inden-5-yl)propanal]
[2]; Conc 50 ppm
  FFI: 0.5
[1]; Conc 10 ppm
  BI: 1.5
[1]; Conc 50 ppm
  BI: 2.7

## CC1(C)CCc2ccc(CCC=O)cc21 [Material 261]
[1]; [3]
  BI: 1.8
[1]; [4]
  BI: 1.3

## CC(=O)OC1CC2CC1C1CC=CC21 (stereo not drawn) [Material 281]
[1]; [3]
  BI: 2.0
[1]; [4]
  BI: 2.0

## CCCCCCCCCCCC(=O)OCC [Material 391]
[1]; [4]
  BI: 2.2

## C=CC(C)=CCC=C(C)C [Material 524]
[1]; [4]
  BI: 2.8

## CCC(O)COC1CCCCC1C(C)(C)C (stereo not drawn) [Material 677]
[1]; [3]
  BI: 2.3
[1]; [4]
  BI: 2.0

## CC(CCO)CCc1ccccc1 (stereo not drawn) [Material 962]
[1]; [3]
  BI: 2.3
[1]; [4]
  BI: 1.7

## CCOC(=O)OC1C(C)CCC(C)C1C (stereo not drawn) [Material 1005]
[1]; [4]
  BI: 2.6

## COC(=O)OC1CC/C=C\CCC1 (stereo not drawn) [Material 1139]
[1]; [3]
  BI: 2.0
[1]; [4]
  BI: 2.7

## C=C1CCC2OC2(C)CCC2C1CC2(C)C (stereo not drawn) [Material 1148]
[1]; [4]
  BI: 2.3

## CC1(C)C2CCC3(C2)C1C(=O)CCC3(C)C (stereo not drawn) [Material 1149]
[1]; [3]
  BI: 1.5
[1]; [4]
  BI: 2.3

## CCCCCCCCCCCO [Undecanol]
[1]; [4]
  BI: 2.3

## CC(C)CC(=O)O [isovaleric acid, reference compound]
[1]; 2 μL 0.08% isovaleric acid, graders 1-5 (Table 10)
  BI reference swatch grade, Ave: 1.0
[1]; stripped swatch with 2 μL 0.08% isovaleric acid
  BI reference swatch grade, single expert grader: 1.0
[1]; stripped swatch with 5 μL 0.08% isovaleric acid
  BI reference swatch grade, single expert grader: 2.5
[1]; stripped swatch with 20 μL 0.08% isovaleric acid
  BI reference swatch grade, single expert grader: 2.5

From patent US20160090557A1, “SUBSTRATES COMPRISING MALODOR REDUCTION COMPOSITIONS” (The Procter & Gamble Company, priority 2014, published 2016)
